Laboratory results published in US20090136570A1, “Taste-Masked Tablets and Granules” (priority 2006, published 2009).

Assay: Hygroscopicity, VTI vapor sorption analyzer
Assay type: physicochemical
Method: Hygroscopicity data was obtained on a VTI Symmetrical Vapor Sorption Analyzer Model SGA-1. Data was collected at room temperature from 5-95% relative humidity and back, 5% relative humidity change per step. Equilibrium conditions were 0.01 weight percent change in 5 minutes with a maximum equilibration time of 180 minutes. […] When equilibrated back down to 5% RH, the material returned back to approximately its dry weight.

## Cc1nnc(C(=O)NC(C)(C)c2nc(C(=O)NCc3ccc(F)cc3)c(O)c(=O)n2C)o1
95% RH at 25° C.
  weight increase when equilibrated at 95% RH: 1.8%
After 5-95% relative humidity cycle at room temperature
  XRPD analysis of the material after the hygroscopicity experiment (phase stability): had not changed phases
